Where two headings read alike, the source gives them in different places.
Assays:
Assay type in all cases: cell-based, Escherichia coli
EKO-35 araC::emrAB = test: MIC susceptibility profiling, efflux platform; settings: for Fold change of MICs: EKO-35 araC::emrAB compared to EKO-35; for MIC: Escherichia coli, Table 13B, non-porinated, technical duplicate, read-out: Minimum Inhibitory Concentration, EKO-35 araC::emrAB
Outline: (§1)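 Overnight LB cultures (37 °C, 18 h) were resuspended in PBS pH 7.4 to OD600 ~1.0 and diluted 1/2000 into MHB II. Strains were exposed to 2-fold serial compound dilutions in duplicate for 18 h at 37 °C with shaking. MIC was read from OD600 after subtracting pre-incubation background.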

EKO-35 araC::acrD = test: MIC susceptibility profiling, efflux platform; settings: for Fold change of MICs: EKO-35 araC::acrD compared to EKO-35
Outline: as §1

EKO-35 araC::emrKY = test: MIC susceptibility profiling, efflux platform; settings: for Fold change of MICs: EKO-35 araC::emrKY compared to EKO-35; for MIC: Escherichia coli, Table 13B, non-porinated, technical duplicate, read-out: Minimum Inhibitory Concentration, EKO-35 araC::emrKY
Outline: as §1

[1] = system: EKO-35 araC::mexCD (MexCD from P. aeruginosa); test: MIC susceptibility profiling, efflux platform; settings: for Fold change of MICs: EKO-35 araC::mexCD compared to EKO-35; for MIC: Table 13B, non-porinated, technical duplicate, read-out: Minimum Inhibitory Concentration, EKO-35 araC::mexCD
Outline: as §1

EKO-35 araC::acrBD408A = test: MIC susceptibility profiling, efflux platform; settings: for Fold change of MICs: EKO-35 araC::acrBD408A compared to EKO-35; for MIC: Escherichia coli, Table 13B, non-porinated, technical duplicate, read-out: Minimum Inhibitory Concentration, EKO-35 araC::acrBD408A
Outline: as §1

EKO-35 araC::macAB = test: MIC susceptibility profiling, efflux platform; settings: for Fold change of MICs: EKO-35 araC::macAB compared to EKO-35; for MIC: Escherichia coli, Table 13B, non-porinated, technical duplicate, read-out: Minimum Inhibitory Concentration, EKO-35 araC::macAB
Outline: as §1

EKO-35 araC::acrEF = test: MIC susceptibility profiling, efflux platform; settings: for Fold change of MICs: EKO-35 araC::acrEF compared to EKO-35; for MIC: Escherichia coli, Table 13A, non-porinated, technical duplicate, read-out: Minimum Inhibitory Concentration, EKO-35 araC::acrEF
Outline: as §1

EKO-35 araC::acrB = test: MIC susceptibility profiling, efflux platform; settings: for Fold change of MICs: EKO-35 araC::acrB compared to EKO-35; for MIC: Escherichia coli, Table 13A, non-porinated, technical duplicate, read-out: Minimum Inhibitory Concentration, EKO-35 araC::acrB
Outline: as §1

EKO-35 acrBD408A = system: EKO-35 acrBD408A
Outline: (§2)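 MHB II, CLSI microdilution checkerboard, colony-resuspension inoculum, solvent controls per plate. MIC = no growth at OD600. FICI summed from FIC of PAβN/NMP and antibiotic; <0.5 synergistic, >2.0 antagonistic.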

EKO-35 = system: EKO-35
Outline: as §2

ΔtolC = system: ΔtolC
Outline: as §2

ΔtolC-Pore = system: ΔtolC-Pore
Outline: as §2

[2] = EKO-35 acrBD408A, NMP + antibiotic
[3] = strain EKO-35 acrBD408A, NMP + antibiotic
[4] = strain EKO-35 acrBD408A, antibiotic alone
[5] = strain EKO-35, NMP + antibiotic
[6] = strain EKO-35, antibiotic alone
[7] = strain EKO-35, antibiotic in combination with NMP
[8] = strain ΔtolC, antibiotic in combination with NMP
[9] = strain ΔtolC Pore, NMP + antibiotic
[10] = strain ΔtolC Pore, antibiotic alone
[11] = strain ΔtolC Pore, antibiotic in combination with NMP
[12] = EKO-35 acrBD408A, PAβN + antibiotic

CC[n+]1c(-c2ccccc2)c2cc(N)ccc2c2ccc(N)cc21 [ethidium bromide]
Fold change of MICs (EKO-35 araC::emrAB): 1 fold | MIC (EKO-35 araC::emrAB): 0.195 µg/mL | Fold change of MICs (EKO-35 araC::acrD): 2 fold | MIC (EKO-35 araC::acrD; Escherichia coli, Table 13A, non-porinated, technical duplicate, read-out: Minimum Inhibitory Concentration, EKO-35 araC::acrD): 0.391 µg/mL | Fold change of MICs (EKO-35 araC::emrKY): 1 fold | MIC (EKO-35 araC::emrKY): 0.195 µg/mL | Fold change of MICs [1]: 8 fold | MIC [1]: 1.56 µg/mL | Fold change of MICs (EKO-35 araC::acrBD408A): 2 fold | MIC (EKO-35 araC::acrBD408A): 0.391 µg/mL | Fold change of MICs (EKO-35 araC::macAB): 1 fold | MIC (EKO-35 araC::macAB): 0.195 µg/mL | Fold change of MICs (EKO-35 araC::acrEF): 16 fold | MIC (EKO-35 araC::acrEF): 3.12 µg/mL | Fold change of MICs (EKO-35 araC::acrB): 64 fold | MIC (EKO-35 araC::acrB): 12.5 µg/mL | FICI (EKO-35 acrBD408A; [2]): 0.750 | Effect (EKO-35 acrBD408A; [3]): Additive (additive (FICI >0.5-1.0)) | FICI (EKO-35 acrBD408A; [3]): 0.750 | MICb Alone (EKO-35 acrBD408A; [4]): 0.488 µg/mL | FICI (EKO-35; EKO-35, NMP + antibiotic): 2.000 | Effect (EKO-35; [5]): — (indifferent (FICI >1.0)) | FICI (EKO-35; [5]): 2.000 | MICb Alone (EKO-35; [6]): 0.244 µg/mL | MICb Combined (EKO-35; [7]): 0.244 µg/mL | Effect (ΔtolC; strain ΔtolC, NMP + antibiotic): Synergistic (Synergy (FICI ≤0.5)) | FICI (ΔtolC; strain ΔtolC, NMP + antibiotic): 0.281 | MICb Alone (ΔtolC; strain ΔtolC, antibiotic alone): 7.81 µg/mL | MICb Combined (ΔtolC; [8]): 1.95 µg/mL | FICI (ΔtolC; ΔtolC, NMP + antibiotic): 0.281 | Effect (ΔtolC-Pore; [9]): Additive (additive (FICI >0.5-1.0)) | FICI (ΔtolC-Pore; [9]): 0.500 | MICb Alone (ΔtolC-Pore; [10]): 1.95 µg/mL | MICb Combined (ΔtolC-Pore; [11]): 0.488 µg/mL | FICI (ΔtolC-Pore; ΔtolC Pore, NMP + antibiotic): 0.500

CC(=O)O[C@H]1C[C@@]2(C)[C@@H](C[C@@H](O)[C@H]3[C@@]4(C)CC[C@@H](O)[C@@H](C)[C@@H]4CC[C@@]32C)/C1=C(\CCC=C(C)C)C(=O)O [fusidic acid]
Fold change of MICs (EKO-35 araC::emrAB): 2 fold | MIC (EKO-35 araC::emrAB): 6.25 µg/mL | Fold change of MICs (EKO-35 araC::acrD): 32 fold | Fold change of MICs (EKO-35 araC::emrKY): 1 fold | MIC (EKO-35 araC::emrKY): 3.12 µg/mL | Fold change of MICs [1]: 4 fold | MIC [1]: 12.5 µg/mL | Fold change of MICs (EKO-35 araC::acrBD408A): 1 fold | MIC (EKO-35 araC::acrBD408A): 3.12 µg/mL | Fold change of MICs (EKO-35 araC::macAB): 1 fold | MIC (EKO-35 araC::macAB): 3.12 µg/mL | Fold change of MICs (EKO-35 araC::acrEF): 16 fold | MIC (EKO-35 araC::acrEF): 50 µg/mL | Fold change of MICs (EKO-35 araC::acrB): 128 fold | MIC (EKO-35 araC::acrB): 400 µg/mL | Effect (EKO-35 acrBD408A; [2]): Synergistic | FICI (EKO-35 acrBD408A; [2]): 0.500 | Effect (EKO-35 acrBD408A; [12]): Synergistic | FICI (EKO-35 acrBD408A; [12]): 0.250 | MICb Alone (EKO-35 acrBD408A; EKO-35 acrBD408A, antibiotic alone (PAβN checkerboard)): 4 µg/mL | MICb Combined (EKO-35 acrBD408A; EKO-35 acrBD408A, antibiotic in combination with PAβN): 0.5 µg/mL | Effect (EKO-35 acrBD408A; [3]): Synergistic (Synergy (FICI ≤0.5)) | FICI (EKO-35 acrBD408A; [3]): 0.500 | MICb Alone (EKO-35 acrBD408A; [4]): 4 µg/mL | MICb Combined (EKO-35 acrBD408A; strain EKO-35 acrBD408A, antibiotic in combination with NMP): 1 µg/mL | Effect (EKO-35; EKO-35, NMP + antibiotic): Additive | FICI (EKO-35; EKO-35, NMP + antibiotic): 0.625 | Effect (EKO-35; EKO-35, PAβN + antibiotic): Synergistic | FICI (EKO-35; EKO-35, PAβN + antibiotic): 0.158 | MICb Alone (EKO-35; EKO-35, antibiotic alone (PAβN checkerboard)): 4 µg/mL | MICb Combined (EKO-35; EKO-35, antibiotic in combination with PAβN): 0.13 µg/mL | interaction of PAβN in combination with the labelled antibiotic (FICI) (EKO-35; efflux-deficient strains EKO-35, EKO-35 acrBD408A, ΔtolC): synergized | Effect (EKO-35; [5]): Additive (additive (FICI >0.5-1.0)) | FICI (EKO-35; [5]): 0.625 | MICb Alone (EKO-35; [6]): 4 µg/mL | MICb Combined (EKO-35; [7]): 0.5 µg/mL | Effect (ΔtolC; strain ΔtolC, NMP + antibiotic): Additive (additive (FICI >0.5-1.0)) | FICI (ΔtolC; strain ΔtolC, NMP + antibiotic): 0.625 | MICb Alone (ΔtolC; strain ΔtolC, antibiotic alone): 4 µg/mL | MICb Combined (ΔtolC; [8]): 0.5 µg/mL | Effect (ΔtolC; ΔtolC, NMP + antibiotic): Additive | FICI (ΔtolC; ΔtolC, NMP + antibiotic): 0.625 | Effect (ΔtolC; ΔtolC, PAβN + antibiotic): Synergistic | FICI (ΔtolC; ΔtolC, PAβN + antibiotic): 0.375 | MICb Alone (ΔtolC; ΔtolC, antibiotic alone (PAβN checkerboard)): 2 µg/mL | MICb Combined (ΔtolC; ΔtolC, antibiotic in combination with PAβN): 0.25 µg/mL | Effect (ΔtolC-Pore; [9]): Additive (additive (FICI >0.5-1.0)) | FICI (ΔtolC-Pore; [9]): 0.750 | MICb Alone (ΔtolC-Pore; [10]): 2 µg/mL | MICb Combined (ΔtolC-Pore; [11]): 1 µg/mL | Effect (ΔtolC-Pore; ΔtolC Pore, NMP + antibiotic): Additive | FICI (ΔtolC-Pore; ΔtolC Pore, NMP + antibiotic): 0.750 | Effect (ΔtolC-Pore; ΔtolC Pore, PAβN + antibiotic): Synergistic | FICI (ΔtolC-Pore; ΔtolC Pore, PAβN + antibiotic): 0.375 | MICb Alone (ΔtolC-Pore; ΔtolC Pore, antibiotic alone (PAβN checkerboard)): 2 µg/mL | MICb Combined (ΔtolC-Pore; ΔtolC Pore, antibiotic in combination with PAβN): 0.25 µg/mL

Reference: patent publication US20230407243A1, “GENETIC PLATFORM TO INVESTIGATE THE FUNCTIONS OF BACTERIAL DRUG EFFLUX PUMPS” (priority 2022, published 2023)
